Assays:
[1] = tested on: p-Btk(Y223) in CD20+ B cells; assay: Phosphoflow cytometry of p-Btk(Y223) in CD20+ B cell gate of healthy PBMCs; assay type: cell-based; settings: 2 hours incubation, anti-IgM or anti-IgM+SDF-1 for 5 minutes, low nM concentrations, FIG. 1
Description: (§1) Cells were then analyzed by phosphoflow cytometry and p-Btk(Y223) was measured in the CD20+ B cell gate and the CD14^+ monocyte gate separately. In B cells, BTK phosphorylation in anti-IgM stimulated B cells is increased with the addition of SDF-1 (CXCL-12) in the “No drug” condition. […] In monocytes, BTK phosphorylation is only observed when SDF-1 is present.

[2] = tested on: p-Btk(Y223) in CD14+ monocytes; assay: Phosphoflow cytometry of p-Btk(Y223) in CD14+ monocyte gate of healthy PBMCs; assay type: cell-based; settings: SDF-1 stimulation, FIG. 2
Description: as §1

[3] = tested on: CXCR4 surface expression in B-CLL cells; assay: CXCR4 surface expression in B-CLL cells of CLL patients after administration; assay type: in vivo, human; settings: CLL patients with 17p deletion, blood 4, 24, 48 hours after day 3 dose
Description: Drug was given for 3 days. Blood was drawn predose, and then 4, 24, and 48 hours after the day 3 dose.

RANK MDA-MB231 = RANK MDA-MB231 mouse experiment (bone metastases, bioluminescence imaging); assay type: in vivo; settings: ~10 and ~50 mg/kg/day PO, 2 weeks of treatment, FIG. 9
Excerpt: FIG. 9 illustrates the results of a RANK MDA-MB231 mouse experiment. […] The primary endpoint was bioluminescence imaging (weekly). The secondary endpoints were serum CTx (bone resorption) and serum P1NP (bone formation).

Compound: CC#CC(=O)N1CCC[C@H]1c1nc(-c2ccc(C(=O)Nc3ccccn3)cc2)c2c(N)nccn12 [Formula (II), (S)-4-(8-amino-3-(1-(but-2-ynoyl)pyrrolidin-2-yl)imidazo[1,5-a]pyrazin-1-yl)-N-(pyridin-2-yl)benzamide]
- BTK phosphorylation, p-Btk(Y223), in B cells [1]: inhibited
- SDF-1/CXCR4 signaling (SDF-1 induced p-Btk) in monocytes [2]: inhibits
- CXCR4 surface expression in B-CLL cells compared to predose ([3]; 100 mg BID for 3 days, FIG. 3): reduced
- CXCR4 surface expression in B-CLL cells compared to predose ([3]; 200 mg QD for 3 days, FIG. 4): reduced
- Bone metastases (bioluminescence imaging) (RANK MDA-MB231): dose-response reduction

— patent publication US9937171B2, “Methods of blocking the CXCR-4/SDF-1 signaling pathway with inhibitors of bruton's tyrosine kinase” (Acerta Pharma B.V., priority 2014, dated 2018)
